Legend:
Experiment in all cases: Kinase profiling
Format in all cases: biochemical
CAMKK2 = target: T1, CAMKK2 (Homo sapiens, UniProt Q96RR4)
T1 construct: purchased ProQinase (Freiburg, Germany)
Protocol: (§1) The analysis was performed by ProQinase (Freiburg, Germany).

CDK6/CycD2 = target: T2, CDK6/CycD2 (Homo sapiens, UniProt Q00534)
T2 construct: purchased ProQinase (Freiburg, Germany)
Protocol: as §1

DAPK1 = target: T3, DAPK1 (Homo sapiens, UniProt P53355)
T3 construct: purchased ProQinase (Freiburg, Germany)
Protocol: as §1

EGFR = target: T4, EGFR (Homo sapiens, UniProt P00533)
T4 construct: purchased ProQinase (Freiburg, Germany)
Protocol: as §1

MAP4K2 = target: T5, MAP4K2 (Homo sapiens, UniProt Q12851)
T5 construct: purchased ProQinase (Freiburg, Germany)
T5 sequence (Q12851 1-820): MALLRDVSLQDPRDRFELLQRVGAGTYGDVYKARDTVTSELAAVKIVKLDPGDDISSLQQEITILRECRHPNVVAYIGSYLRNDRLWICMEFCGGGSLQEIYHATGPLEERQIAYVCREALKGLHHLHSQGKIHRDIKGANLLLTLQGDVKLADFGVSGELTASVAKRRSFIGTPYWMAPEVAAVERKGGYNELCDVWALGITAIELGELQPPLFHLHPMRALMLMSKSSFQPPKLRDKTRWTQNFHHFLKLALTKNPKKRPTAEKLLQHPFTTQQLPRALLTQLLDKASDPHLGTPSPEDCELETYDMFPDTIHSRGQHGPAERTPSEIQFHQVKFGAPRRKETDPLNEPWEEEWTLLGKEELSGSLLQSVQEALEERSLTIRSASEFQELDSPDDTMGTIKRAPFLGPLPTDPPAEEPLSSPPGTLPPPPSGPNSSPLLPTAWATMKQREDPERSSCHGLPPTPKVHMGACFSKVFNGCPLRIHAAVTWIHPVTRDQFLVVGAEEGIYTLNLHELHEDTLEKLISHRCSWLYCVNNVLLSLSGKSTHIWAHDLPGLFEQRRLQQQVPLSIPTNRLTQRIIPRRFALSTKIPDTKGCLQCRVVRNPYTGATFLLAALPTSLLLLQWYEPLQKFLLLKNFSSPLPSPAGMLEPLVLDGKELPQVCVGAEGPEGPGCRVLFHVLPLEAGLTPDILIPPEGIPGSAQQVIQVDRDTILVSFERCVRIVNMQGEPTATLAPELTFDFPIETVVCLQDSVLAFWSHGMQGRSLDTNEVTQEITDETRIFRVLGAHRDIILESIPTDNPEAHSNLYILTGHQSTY
Protocol: as §1

MARK2 = target: T6, MARK2 (Homo sapiens, UniProt Q7KZI7)
T6 construct: purchased ProQinase (Freiburg, Germany)
Protocol: as §1

MUSK = target: T7, MUSK (Homo sapiens, UniProt O15146)
T7 construct: purchased ProQinase (Freiburg, Germany)
T7 sequence (O15146 24-869): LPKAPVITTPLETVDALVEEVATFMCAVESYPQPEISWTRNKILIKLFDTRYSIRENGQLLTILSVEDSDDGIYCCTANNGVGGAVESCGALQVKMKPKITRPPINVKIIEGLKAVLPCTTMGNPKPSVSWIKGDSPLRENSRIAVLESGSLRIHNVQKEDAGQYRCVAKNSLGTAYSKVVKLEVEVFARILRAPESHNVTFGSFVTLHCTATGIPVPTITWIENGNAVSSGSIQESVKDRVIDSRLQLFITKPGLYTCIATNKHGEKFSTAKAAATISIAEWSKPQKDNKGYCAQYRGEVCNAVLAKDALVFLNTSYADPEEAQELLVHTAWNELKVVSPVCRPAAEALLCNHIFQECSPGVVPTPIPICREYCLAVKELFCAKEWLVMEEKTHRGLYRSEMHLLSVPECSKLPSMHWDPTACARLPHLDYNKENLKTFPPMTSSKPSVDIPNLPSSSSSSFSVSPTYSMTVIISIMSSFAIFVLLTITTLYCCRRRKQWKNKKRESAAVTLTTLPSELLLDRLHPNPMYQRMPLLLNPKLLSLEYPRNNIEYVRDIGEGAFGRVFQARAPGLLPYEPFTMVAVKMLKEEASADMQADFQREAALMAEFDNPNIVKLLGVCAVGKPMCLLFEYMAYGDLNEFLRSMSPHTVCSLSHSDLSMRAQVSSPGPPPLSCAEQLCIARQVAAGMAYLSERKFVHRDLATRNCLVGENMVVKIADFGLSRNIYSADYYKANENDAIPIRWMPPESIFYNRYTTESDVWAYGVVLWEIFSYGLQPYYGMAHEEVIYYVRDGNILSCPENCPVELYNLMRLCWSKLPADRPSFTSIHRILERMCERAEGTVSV
Protocol: as §1

SGK2 = target: T8, SGK2 (Homo sapiens, UniProt Q9HBY8)
T8 construct: purchased ProQinase (Freiburg, Germany)
T8 sequence (Q9HBY8 1-367): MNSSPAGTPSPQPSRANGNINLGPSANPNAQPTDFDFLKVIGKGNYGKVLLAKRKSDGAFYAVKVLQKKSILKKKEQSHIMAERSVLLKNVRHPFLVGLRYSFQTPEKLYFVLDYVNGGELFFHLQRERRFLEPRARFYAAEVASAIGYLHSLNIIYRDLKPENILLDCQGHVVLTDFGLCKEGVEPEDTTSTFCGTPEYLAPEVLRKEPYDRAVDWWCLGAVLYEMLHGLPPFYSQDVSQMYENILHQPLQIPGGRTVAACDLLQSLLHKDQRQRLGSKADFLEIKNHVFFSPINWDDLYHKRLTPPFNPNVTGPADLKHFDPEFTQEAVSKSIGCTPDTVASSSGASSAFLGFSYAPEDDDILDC
Protocol: as §1

T3 sequence (P53355 whole entry): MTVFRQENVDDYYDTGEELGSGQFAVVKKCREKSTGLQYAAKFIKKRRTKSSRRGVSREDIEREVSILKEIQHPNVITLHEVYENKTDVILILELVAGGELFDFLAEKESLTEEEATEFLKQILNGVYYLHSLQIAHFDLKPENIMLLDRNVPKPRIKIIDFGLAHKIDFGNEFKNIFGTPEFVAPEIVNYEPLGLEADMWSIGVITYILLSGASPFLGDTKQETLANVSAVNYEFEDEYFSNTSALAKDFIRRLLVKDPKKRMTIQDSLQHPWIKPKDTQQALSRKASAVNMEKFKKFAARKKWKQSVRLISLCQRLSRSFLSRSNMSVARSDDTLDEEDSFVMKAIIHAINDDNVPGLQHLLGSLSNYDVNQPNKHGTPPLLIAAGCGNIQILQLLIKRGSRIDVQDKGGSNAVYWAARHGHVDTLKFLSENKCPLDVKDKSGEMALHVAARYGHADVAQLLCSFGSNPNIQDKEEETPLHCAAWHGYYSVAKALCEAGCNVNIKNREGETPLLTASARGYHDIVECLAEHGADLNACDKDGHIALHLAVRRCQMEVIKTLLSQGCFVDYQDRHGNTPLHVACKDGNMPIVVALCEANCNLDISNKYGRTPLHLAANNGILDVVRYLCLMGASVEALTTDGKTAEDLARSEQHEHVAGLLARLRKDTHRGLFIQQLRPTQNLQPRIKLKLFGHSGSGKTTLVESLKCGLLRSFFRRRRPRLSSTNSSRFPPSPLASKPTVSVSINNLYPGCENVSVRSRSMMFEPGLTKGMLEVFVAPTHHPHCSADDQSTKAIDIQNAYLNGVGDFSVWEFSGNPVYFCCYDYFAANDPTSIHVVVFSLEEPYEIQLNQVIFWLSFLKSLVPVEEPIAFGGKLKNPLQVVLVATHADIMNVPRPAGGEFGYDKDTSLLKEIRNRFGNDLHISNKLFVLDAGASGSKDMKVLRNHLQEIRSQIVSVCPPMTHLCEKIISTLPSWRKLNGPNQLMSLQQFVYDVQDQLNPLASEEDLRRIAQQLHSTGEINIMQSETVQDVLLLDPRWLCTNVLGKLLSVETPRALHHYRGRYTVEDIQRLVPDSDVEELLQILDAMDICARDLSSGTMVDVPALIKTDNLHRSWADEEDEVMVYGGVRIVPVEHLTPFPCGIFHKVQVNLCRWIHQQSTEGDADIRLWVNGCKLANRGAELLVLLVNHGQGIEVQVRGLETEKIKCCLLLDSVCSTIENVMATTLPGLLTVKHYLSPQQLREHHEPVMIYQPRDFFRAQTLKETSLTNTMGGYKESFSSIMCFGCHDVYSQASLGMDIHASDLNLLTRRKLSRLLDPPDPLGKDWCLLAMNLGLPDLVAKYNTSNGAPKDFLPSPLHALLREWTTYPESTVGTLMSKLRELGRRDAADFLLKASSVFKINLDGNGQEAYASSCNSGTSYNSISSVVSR
T6 sequence (Q7KZI7 whole entry): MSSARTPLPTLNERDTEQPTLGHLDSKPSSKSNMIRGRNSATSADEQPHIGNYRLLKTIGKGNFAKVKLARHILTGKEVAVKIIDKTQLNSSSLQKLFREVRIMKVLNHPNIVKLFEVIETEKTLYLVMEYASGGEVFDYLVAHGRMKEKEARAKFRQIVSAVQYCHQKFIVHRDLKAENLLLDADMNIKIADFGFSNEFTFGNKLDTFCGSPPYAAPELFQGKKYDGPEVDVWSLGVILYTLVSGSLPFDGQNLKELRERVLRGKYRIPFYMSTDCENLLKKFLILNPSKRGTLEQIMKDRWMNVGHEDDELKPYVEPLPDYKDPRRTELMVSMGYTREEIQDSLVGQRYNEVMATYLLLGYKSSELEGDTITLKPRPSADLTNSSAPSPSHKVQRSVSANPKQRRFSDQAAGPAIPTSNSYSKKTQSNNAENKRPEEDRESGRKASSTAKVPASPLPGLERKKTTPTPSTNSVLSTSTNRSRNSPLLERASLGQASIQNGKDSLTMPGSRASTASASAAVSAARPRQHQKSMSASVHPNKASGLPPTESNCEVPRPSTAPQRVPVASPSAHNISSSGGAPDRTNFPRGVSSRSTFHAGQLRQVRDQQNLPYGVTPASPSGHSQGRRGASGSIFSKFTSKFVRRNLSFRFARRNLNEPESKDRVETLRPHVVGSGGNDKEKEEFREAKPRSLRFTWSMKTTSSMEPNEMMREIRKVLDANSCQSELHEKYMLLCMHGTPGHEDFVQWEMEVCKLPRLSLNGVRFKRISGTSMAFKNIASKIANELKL
T1 sequence (Q96RR4 whole entry): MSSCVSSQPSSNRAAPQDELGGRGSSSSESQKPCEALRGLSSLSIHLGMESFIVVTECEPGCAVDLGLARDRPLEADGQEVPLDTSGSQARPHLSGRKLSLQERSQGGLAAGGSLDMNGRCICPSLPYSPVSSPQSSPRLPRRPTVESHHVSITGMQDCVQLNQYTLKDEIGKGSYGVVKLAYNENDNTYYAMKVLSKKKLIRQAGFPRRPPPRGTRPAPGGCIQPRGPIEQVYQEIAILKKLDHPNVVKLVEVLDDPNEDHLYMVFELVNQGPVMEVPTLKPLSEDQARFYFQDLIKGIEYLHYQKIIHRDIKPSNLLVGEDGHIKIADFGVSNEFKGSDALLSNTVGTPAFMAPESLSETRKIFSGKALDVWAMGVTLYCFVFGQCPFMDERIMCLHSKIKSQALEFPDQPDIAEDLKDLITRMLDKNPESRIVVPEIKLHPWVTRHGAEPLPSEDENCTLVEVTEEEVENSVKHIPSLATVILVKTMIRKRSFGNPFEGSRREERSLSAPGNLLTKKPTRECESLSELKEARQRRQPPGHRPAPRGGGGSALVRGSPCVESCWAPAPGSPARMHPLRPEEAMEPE
T4 sequence (P00533 25-1210): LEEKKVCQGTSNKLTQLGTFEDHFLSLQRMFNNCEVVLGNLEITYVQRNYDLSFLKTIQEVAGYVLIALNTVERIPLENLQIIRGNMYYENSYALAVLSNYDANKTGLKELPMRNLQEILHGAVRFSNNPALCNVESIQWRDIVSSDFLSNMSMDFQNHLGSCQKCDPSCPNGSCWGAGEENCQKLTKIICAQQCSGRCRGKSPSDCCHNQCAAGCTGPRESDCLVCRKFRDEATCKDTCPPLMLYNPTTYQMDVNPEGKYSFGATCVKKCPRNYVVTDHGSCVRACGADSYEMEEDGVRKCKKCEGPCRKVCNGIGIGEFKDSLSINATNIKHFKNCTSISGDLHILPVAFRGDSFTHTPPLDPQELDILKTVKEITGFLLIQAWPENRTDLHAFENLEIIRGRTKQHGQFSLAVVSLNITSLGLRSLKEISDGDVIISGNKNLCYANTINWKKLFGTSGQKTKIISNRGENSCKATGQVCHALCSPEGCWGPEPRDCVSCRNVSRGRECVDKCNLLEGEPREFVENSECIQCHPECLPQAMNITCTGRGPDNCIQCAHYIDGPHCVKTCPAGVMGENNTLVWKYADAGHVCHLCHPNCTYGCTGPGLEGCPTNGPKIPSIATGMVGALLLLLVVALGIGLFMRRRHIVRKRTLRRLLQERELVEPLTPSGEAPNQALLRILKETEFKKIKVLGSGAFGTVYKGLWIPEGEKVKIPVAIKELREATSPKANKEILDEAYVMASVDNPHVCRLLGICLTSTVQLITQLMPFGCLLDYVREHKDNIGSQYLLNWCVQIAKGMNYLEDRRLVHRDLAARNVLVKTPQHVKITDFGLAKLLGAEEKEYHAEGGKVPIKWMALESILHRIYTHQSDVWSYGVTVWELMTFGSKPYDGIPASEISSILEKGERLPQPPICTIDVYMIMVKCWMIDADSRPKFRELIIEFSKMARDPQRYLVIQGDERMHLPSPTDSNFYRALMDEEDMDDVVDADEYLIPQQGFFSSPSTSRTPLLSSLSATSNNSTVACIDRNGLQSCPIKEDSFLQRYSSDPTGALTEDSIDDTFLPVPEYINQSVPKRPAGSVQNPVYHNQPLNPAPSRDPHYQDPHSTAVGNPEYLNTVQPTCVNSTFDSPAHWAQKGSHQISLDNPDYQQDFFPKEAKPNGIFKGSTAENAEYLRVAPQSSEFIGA
T2 sequence (Q00534 whole entry): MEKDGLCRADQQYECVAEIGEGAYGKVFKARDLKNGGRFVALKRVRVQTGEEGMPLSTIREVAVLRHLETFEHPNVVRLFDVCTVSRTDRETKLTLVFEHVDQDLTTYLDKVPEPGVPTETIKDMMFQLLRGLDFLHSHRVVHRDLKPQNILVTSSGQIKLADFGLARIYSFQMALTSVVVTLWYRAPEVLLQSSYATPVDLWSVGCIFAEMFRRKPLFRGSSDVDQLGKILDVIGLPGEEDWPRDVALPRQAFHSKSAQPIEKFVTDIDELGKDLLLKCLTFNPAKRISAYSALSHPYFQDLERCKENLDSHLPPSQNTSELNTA
T2 sequence (P30279 whole entry partner): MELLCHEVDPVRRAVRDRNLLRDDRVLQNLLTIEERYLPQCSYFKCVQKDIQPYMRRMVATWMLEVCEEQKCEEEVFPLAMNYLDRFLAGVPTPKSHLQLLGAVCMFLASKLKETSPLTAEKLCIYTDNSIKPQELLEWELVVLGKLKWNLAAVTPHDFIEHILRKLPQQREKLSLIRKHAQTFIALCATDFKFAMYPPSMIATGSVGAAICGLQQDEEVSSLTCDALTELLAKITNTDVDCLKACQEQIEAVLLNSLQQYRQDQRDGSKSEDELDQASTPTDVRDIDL

SMILES	Residual activity (CAMKK2; 1.0E-05 M)	Residual activity (CAMKK2; 1.0E-06 M)	Residual activity (CDK6/CycD2; 1.0E-05 M)	Residual activity (CDK6/CycD2; 1.0E-06 M)	Residual activity (DAPK1; 1.0E-05 M)	Residual activity (DAPK1; 1.0E-06 M)	Residual activity (EGFR; 1.0E-05 M)	Residual activity (EGFR; 1.0E-06 M)	Residual activity (MAP4K2; 1.0E-05 M)	Residual activity (MAP4K2; 1.0E-06 M)	Residual activity (MARK2; 1.0E-05 M)	Residual activity (MARK2; 1.0E-06 M)	Residual activity (MUSK; 1.0E-05 M)	Residual activity (MUSK; 1.0E-06 M)	Residual activity (SGK2; 1.0E-05 M)	Residual activity (SGK2; 1.0E-06 M)
O=C(Cc1ccccc1)Nc1ccc(F)c(Nc2ccc3c(c2)CCCCC3=O)c1 [Compound 100]	95 % of control	97 % of control	97 % of control	97 % of control	110 % of control	127 % of control	99 % of control	100 % of control	71 % of control	94 % of control	104 % of control	103 % of control	93 % of control	98 % of control	93 % of control	101 % of control
O=C(Nc1ccc(F)c(Nc2ccc3c(c2)CCCCC3=O)c1)c1cccc(F)c1 [Compound 109]	81 % of control	84 % of control	94 % of control	105 % of control	102 % of control	109 % of control	93 % of control	105 % of control	93 % of control	95 % of control	99 % of control	107 % of control	83 % of control	97 % of control	96 % of control	97 % of control

Source: PMC9030254, “Target Hopping from Protein Kinases to PXR: Identification of Small-Molecule Protein Kinase Inhibitors as Selective Modulators of Pregnane X Receptor from TüKIC Library” (Cells, 2022)
